Reference: patent publication US9562035B2, “Benzamide derivative useful as FASN inhibitors for the treatment of cancer” (Janssen Pharmaceutica NV, priority 2013, dated 2017)

What was measured:
[1] = target: T1, hFASN enzyme (full length) (Homo sapiens, UniProt P49327); assay: Fatty Acid Synthase (FASN) Inhibition Scintillation Proximity Assay; type: biochemical; settings: for IC50: mean where tested more than once, ~ = standard error of pIC50 larger than 0.5; for inhibition at 10 µM: read-out: FASN % Effect @1E−05M
T1 construct: 10 μL hFASN enzyme (full length, 300 ng, purified in house); made in house
T1 sequence (P49327 whole entry): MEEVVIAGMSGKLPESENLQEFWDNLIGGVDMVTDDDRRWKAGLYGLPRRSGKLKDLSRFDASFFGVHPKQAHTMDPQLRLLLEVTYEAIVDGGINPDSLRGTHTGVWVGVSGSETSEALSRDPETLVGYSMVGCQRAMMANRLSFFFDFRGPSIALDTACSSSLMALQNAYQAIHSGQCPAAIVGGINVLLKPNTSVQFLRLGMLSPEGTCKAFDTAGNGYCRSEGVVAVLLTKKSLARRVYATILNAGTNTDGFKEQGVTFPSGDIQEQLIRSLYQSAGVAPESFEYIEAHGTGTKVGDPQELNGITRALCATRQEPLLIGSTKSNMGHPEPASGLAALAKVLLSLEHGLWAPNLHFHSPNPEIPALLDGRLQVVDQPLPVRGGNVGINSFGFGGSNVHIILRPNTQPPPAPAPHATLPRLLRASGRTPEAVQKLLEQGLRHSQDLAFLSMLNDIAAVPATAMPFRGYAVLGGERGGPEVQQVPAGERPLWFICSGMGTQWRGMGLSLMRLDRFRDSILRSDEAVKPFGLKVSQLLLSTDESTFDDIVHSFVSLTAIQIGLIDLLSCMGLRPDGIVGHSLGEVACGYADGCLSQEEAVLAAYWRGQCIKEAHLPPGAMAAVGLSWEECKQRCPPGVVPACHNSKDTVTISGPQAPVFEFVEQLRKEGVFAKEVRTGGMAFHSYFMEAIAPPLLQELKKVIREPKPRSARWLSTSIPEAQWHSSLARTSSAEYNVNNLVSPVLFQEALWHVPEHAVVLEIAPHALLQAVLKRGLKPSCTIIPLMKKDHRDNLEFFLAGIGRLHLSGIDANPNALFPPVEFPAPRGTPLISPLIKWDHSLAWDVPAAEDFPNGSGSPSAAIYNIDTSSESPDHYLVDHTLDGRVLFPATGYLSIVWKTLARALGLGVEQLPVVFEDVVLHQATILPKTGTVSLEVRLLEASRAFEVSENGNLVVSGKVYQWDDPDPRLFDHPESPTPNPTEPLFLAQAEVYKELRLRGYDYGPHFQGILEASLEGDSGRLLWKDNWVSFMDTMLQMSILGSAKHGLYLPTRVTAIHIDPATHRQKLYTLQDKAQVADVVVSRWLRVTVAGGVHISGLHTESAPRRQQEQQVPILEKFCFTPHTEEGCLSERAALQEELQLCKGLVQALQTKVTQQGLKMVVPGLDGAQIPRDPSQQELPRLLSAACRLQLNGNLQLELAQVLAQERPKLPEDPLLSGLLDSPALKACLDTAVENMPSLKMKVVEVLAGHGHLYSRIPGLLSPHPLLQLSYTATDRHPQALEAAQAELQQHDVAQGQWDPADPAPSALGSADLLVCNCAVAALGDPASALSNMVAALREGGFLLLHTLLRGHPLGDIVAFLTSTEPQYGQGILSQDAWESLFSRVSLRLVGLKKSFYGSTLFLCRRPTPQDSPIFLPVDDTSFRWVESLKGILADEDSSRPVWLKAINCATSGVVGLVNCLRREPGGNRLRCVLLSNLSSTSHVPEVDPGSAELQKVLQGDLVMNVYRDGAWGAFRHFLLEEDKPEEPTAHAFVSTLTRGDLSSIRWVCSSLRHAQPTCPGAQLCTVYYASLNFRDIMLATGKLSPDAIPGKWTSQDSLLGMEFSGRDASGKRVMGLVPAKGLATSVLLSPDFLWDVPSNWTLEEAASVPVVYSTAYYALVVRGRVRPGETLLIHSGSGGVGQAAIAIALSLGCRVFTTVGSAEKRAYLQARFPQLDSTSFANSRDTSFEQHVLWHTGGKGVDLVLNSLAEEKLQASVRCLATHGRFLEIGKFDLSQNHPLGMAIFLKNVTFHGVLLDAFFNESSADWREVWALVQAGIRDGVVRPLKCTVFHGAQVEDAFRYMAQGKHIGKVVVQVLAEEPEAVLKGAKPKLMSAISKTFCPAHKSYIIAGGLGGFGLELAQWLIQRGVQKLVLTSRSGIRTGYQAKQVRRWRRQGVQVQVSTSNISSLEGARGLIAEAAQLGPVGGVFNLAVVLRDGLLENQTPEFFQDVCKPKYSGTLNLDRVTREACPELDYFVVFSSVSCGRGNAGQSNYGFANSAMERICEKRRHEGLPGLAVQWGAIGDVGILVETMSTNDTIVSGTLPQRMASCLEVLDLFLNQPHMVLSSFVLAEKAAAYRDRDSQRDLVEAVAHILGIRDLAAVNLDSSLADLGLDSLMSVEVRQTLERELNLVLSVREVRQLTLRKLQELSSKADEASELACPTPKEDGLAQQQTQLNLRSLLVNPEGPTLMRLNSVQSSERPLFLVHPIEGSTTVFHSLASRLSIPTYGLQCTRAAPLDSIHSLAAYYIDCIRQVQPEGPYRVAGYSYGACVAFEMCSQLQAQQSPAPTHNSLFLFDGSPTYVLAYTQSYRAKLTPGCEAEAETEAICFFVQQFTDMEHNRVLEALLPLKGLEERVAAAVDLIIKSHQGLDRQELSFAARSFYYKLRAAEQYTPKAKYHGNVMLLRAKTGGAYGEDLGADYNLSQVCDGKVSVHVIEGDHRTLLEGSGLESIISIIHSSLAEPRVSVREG
Procedure, shortened: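 Purified full-length human FASN (300 ng) incubated 60 min at room temperature with NADPH, [3H]-acetyl-CoA and malonyl-CoA in 100 mM KH2PO4 pH 7.5, 1 mM DTT; compound at 30 μM to 0.01 μM. [3H]-palmitate captured by SPA imaging beads; IC50 from 4-parameter fit, reported as pIC50.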

[2] = target: T2, FASN Keto-reductase Domain (Homo sapiens, UniProt P49327); assay: Fatty Acid Synthase Keto-Reductase Domain (FASN KR) Inhibition; type: biochemical; settings: mean where tested more than once; read-out: FASN K-R Domain pIC50 (converted)
T2 construct: 10 μL hFASN enzyme (full length, 300 ng, purified in house) and 360 μM NADPH; made in house
T2 sequence (P49327 whole entry, the tested form may be a part): as the sequence (P49327 whole entry) above
Procedure, shortened: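 Full-length human FASN (300 ng) in 100 mM KH2PO4 pH 7.5 with 360 μM NADPH and 180 mM ethyl acetoacetate (stock); A340 decrease read over 20 min at room temperature.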

A2780 ovarian cells [3] = assay: A2780 Ovarian Cell Proliferation Assay in Lipid Reduced Medium, without Palmitate; type: cell-based; settings: Homo sapiens, A2780; lipid reduced medium, without palmitate, 96 h, MTT; read-out: Proliferation A2780 w/o Palmitate pIC50 (converted)
Procedure, shortened: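 A2780 cells were seeded in 10% FCS medium and switched next day to 10% lipid-reduced serum without palmitate. Compounds at 0.01–30 μM were added with 0.2% DMSO, 0.2% fatty-acid-free BSA and 0.25% ethanol final. After 96 h, MTT absorbance at 544 nm was normalized to plate controls, and IC50/pIC50 came from a 4-parameter logistic fit.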

A2780 ovarian cells [4] = assay: A2780 Ovarian Cell Proliferation Assay in Lipid Reduced Medium, with Palmitate (control); type: cell-based; settings: Homo sapiens, A2780; lipid reduced medium, 25 μM palmitate, 96 h, MTT; read-out: Proliferation A2780 with Palmitate pIC50 (converted)
Procedure, shortened: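 A2780 cells were seeded in RPMI1640 with 10% FCS, then switched next day to medium with 10% lipid-reduced serum. Compound was added with final 25 μM palmitate, 0.2% fatty-acid-free BSA and 0.2% DMSO, and incubated 96 h at 37 °C. Read-out was MTT absorbance at 544 nm; pIC50 = −log(IC50) from curve fit.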

SMILES | IC50 [1] | inhibition at 10 µM [1] | IC50 [2] | IC50 (A2780 ovarian cells [3]) | IC50 (A2780 ovarian cells [4])
Cc1ccc(C(=O)N2CC(c3ccc(-c4cnn(C)c4)cc3)C2)cc1NC(=O)c1cnc(NC(C)C)nc1 [Compound 158, 2-(isopropylamino)-N-(2-methyl-5-(3-(4-(1-methyl-1H-pyrazol-4-yl)phenyl)azetidine-1-carbonyl)phenyl)pyrimidine-5-carboxamide] | 23.4 nM | 102% | 37.2 nM | 10 nM | > 10000 nM
Cc1ccc(C(=O)N2CC(c3ccc(-c4cnn(C)c4)cc3)C2)cc1NC(=O)c1cnc(N2CCOCC2)nc1 [Compound 159, N-(2-methyl-5-(3-(4-(1-methyl-1H-pyrazol-4-yl)phenyl)azetidine-1-carbonyl)phenyl)-2-morpholinopyrimidine-5-carboxamide] | 22.9 nM | 104% | 33.9 nM | ~5.75 nM | > 10000 nM
Cc1ccc(C(=O)N2CCC(c3ccc(-c4cnn(C)c4)cc3)CC2)cc1NC(=O)c1ccc(N2CCN[C@@H](CO)C2)nc1 [Compound 163, (3R)-6-(3-(hydroxymethyl)piperazin-1-yl)-N-(2-methyl-5-(4-(4-(1-methyl-1H-Pyrazol-4-yl)phenyl)piperidine-1-carbonyl)phenyl)nicotinamide] | 28.8 nM | 105% | 46.8 nM | 13.2 nM | > 10000 nM
CCN1CCC(C(=O)Nc2cc(C(=O)N3CCC(c4ccc(-c5cnn(C)c5)cc4)CC3)ccc2C)CC1 [Compound 168, 1-ethyl-N-(2-methyl-5-(4-(4-(1-methyl-1H-pyrazol-4-yl)phenyl)piperidine-1-carbonyl)phenyl)piperidine-4-carboxamide] | 61.7 nM | 113% | 126 nM | 72.4 nM | > 10000 nM
CCCCC(C)N1CCC(C(=O)Nc2cc(C(=O)N3CCC(c4ccc(-c5cnn(C)c5)cc4)CC3)ccc2C)CC1 (stereo not shown) [Compound 175, 1-(hexan-2-yl)-N-(2-methyl-5-(4-(4-(1-methyl-1H-pyrazol-4-yl)phenyl)piperidine-1-carbonyl)phenyl)piperidine-4-carboxamide] | 49 nM | 108% | 77.6 nM | 38.9 nM | ~10000 nM
CCCCCN1CCC(C(=O)Nc2cc(C(=O)N3CCC(c4ccc(-c5cnn(C)c5)cc4)CC3)ccc2C)CC1 [Compound 176, N-(2-methyl-5-(4-(4-(1-methyl-1H-pyrazol-4-yl)phenyl)piperidine-1-carbonyl)phenyl)-1-pentylpiperidine-4-carboxamide] | 33.9 nM | 110% | 105 nM | 53.7 nM | ~10000 nM
Cc1ccc(C(=O)N2CCC(c3ccc(-c4cnn(C)c4)cc3)CC2)cc1NC(=O)C1CCN(C2CCCCC2)CC1 [Compound 177, 1-cyclohexyl-N-(2-methyl-5-(4-(4-(1-methyl-1H-pyrazol-4-yl)phenyl)piperidine-1-carbonyl)phenyl)piperidine-4-carboxamide] | 25.7 nM | 112% | 50.1 nM | 13.8 nM | > 10000 nM
Cc1ccc(C(=O)N2CCC(c3ccc(-c4cnn(C)c4)cc3)CC2)cc1NC(=O)C1CCN(CC(C)(C)C)CC1 [Compound 178, N-(2-methyl-5-(4-(4-(1-methyl-1H-pyrazol-4-yl)phenyl)piperidine-1-carbonyl)phenyl)-1-neopentylpiperidine-4-carboxamide] | 45.7 nM | 106% | 58.9 nM | 26.9 nM | > 10000 nM
Cc1ccc(C(=O)N2CCC(c3ccc(-c4cnn(C)c4)cc3)CC2)cc1NC(=O)C1CCN(CC(C)C)CC1 [Compound 179, 1-isobutyl-N-(2-methyl-5-(4-(4-(1-methyl-1H-pyrazol-4-yl)phenyl)piperidine-1-carbonyl)phenyl)piperidine-4-carboxamide] | 26.3 nM | 108% | 37.2 nM | 57.5 nM | > 6170 nM
Cc1ccc(C(=O)N2CCC(c3ccc(-c4cnn(C)c4)cc3)CC2)cc1NC(=O)C1CCN(C2CCCC2)CC1 [Compound 180, 1-cyclopentyl-N-(2-methyl-5-(4-(4-(1-methyl-1H-pyrazol-4-yl)phenyl)piperidine-1-carbonyl)phenyl)piperidine-4-carboxamide] | 25.1 nM | 104% | 40.7 nM | 16.6 nM | > 10000 nM
CCCN1CCC(C(=O)Nc2cc(C(=O)N3CCC(c4ccc(-c5cnn(C)c5)cc4)CC3)ccc2C)CC1 [Compound 181, N-(2-methyl-5-(4-(4-(1-methyl-1H-pyrazol-4-yl)phenyl)piperidine-1-carbonyl)phenyl)-1-propylpiperidine-4-carboxamide] | 41.7 nM | 108% | 110 nM | 32.4 nM | > 10000 nM
COc1ccc(C(=O)N2CC(c3ccc(-c4cnn(C)c4)cc3)C2)cc1NC(=O)c1ccc(N2CCOCC2)nc1 [Compound 184, N-(2-methoxy-5-(3-(4-(1-methyl-1H-pyrazol-4-yl)phenyl)azetidine-1-carbonyl)phenyl)-6-morpholinonicotinamide] | 36.3 nM | 105% | 123 nM | 58.9 nM | > 10000 nM

The next lines start with the values.

IC50 [1] | inhibition at 10 µM [1] | IC50 [2] | IC50 (A2780 ovarian cells [3]) | IC50 (A2780 ovarian cells [4]) | SMILES
40.7 nM | 100% | 91.2 nM | 28.2 nM | 6920 nM | Cc1ccc(C(=O)N2CCC(c3ccc(-c4cnn(C)c4)cc3)CC2)cc1NC(=O)c1ccc2[nH]ccc2c1 [Compound 160, N-(2-methyl-5-(4-(4-(1-methyl-1H-pyrazol-4-yl)phenyl)piperidine-1-carbonyl)phenyl)-1H-indole-5-carboxamide]
21.4 nM | 101% | 38.9 nM | 24 nM | 3720 nM | Cc1ccc(C(=O)N2CCC(c3ccc(-c4cnn(C)c4)cc3)CC2)cc1NC(=O)c1ccncc1F [Compound 161, 3-fluoro-N-(2-methyl-5-(4-(4-(1-methyl-1H-pyrazol-4-yl)phenyl)piperidine-1-carbonyl)phenyl)isonicotinamide]
20 nM | 101% | 32.4 nM | 8.13 nM | ~7590 nM | Cc1ccc(C(=O)N2CCC(c3ccc(-c4cnn(C)c4)cc3)CC2)cc1NC(=O)c1cnc(NC2CCC2)nc1 [Compound 162, 2-(cyclobutylamino)-N-(2-methyl-5-(4-(4-(1-methyl-1H-pyrazol-4-yl)phenyl)piperidine-1-carbonyl)phenyl)pyrimidine-5-carboxamide]
70.8 nM | 106% | 191 nM | 77.6 nM | > 10000 nM | Cc1ccc(C(=O)N2CCC(c3ccc(-c4cnn(C)c4)cc3)CC2)cc1NC(=O)C1CCN(C)CC1 [Compound 169, 1-methyl-N-(2-methyl-5-(4-(4-(1-methyl-1H-pyrazol-4-yl)phenyl)piperidine-1-carbonyl)phenyl)piperidine-4-carboxamide]
57.5 nM | 112% | 339 nM | 302 nM | > 10000 nM | Cc1ccc(C(=O)N2CCC(c3ccc(-c4cnn(C)c4)cc3)CC2)cc1NC(=O)C1CCNC1 (stereo not shown) [Compound 170, N-(2-methyl-5-(4-(4-(1-methyl-1H-pyrazol-4-yl)phenyl)piperidine-1-carbonyl)phenyl)pyrrolidine-3-carboxamide]
891 nM | 84% | 1000 nM | 1200 nM | > 10000 nM | Cc1ccc(C(=O)N2CCC(c3ccc(-c4cnn(C)c4)cc3)CC2)cc1NC(=O)[C@@H]1CCCN1 [Compound 171, (S)—N-(2-methyl-5-(4-(4-(1-methyl-1H-pyrazol-4-yl)phenyl)piperidine-1-carbonyl)phenyl)pyrrolidine-2-carboxamide]
490 nM | 91% | 741 nM | 794 nM | > 10000 nM | Cc1ccc(C(=O)N2CCC(c3ccc(-c4cnn(C)c4)cc3)CC2)cc1NC(=O)[C@H]1CCCN1 [Compound 172, (R)—N-(2-methyl-5-(4-(4-(1-methyl-1H-pyrazol-4-yl)phenyl)piperidine-1-carbonyl)phenyl)pyrrolidine-2-carboxamide]
60.3 nM | 103% | 135 nM | 141 nM | > 10000 nM | Cc1ccc(C(=O)N2CCC(c3ccc(-c4cnn(C)c4)cc3)CC2)cc1NC(=O)c1cncs1 [Compound 174, N-(2-methyl-5-(4-(4-(1-methyl-1H-pyrazol-4-yl)phenyl)piperidine-1-carbonyl)phenyl)thiazole-5-carboxamide]
